Experimental data from patent publication US20240218022A1, “ANTI-VISTA MACROCYCLIC PEPTIDES AND COMPOSITIONS” (BRISTOL-MYERS SQUIBB COMPANY, priority 2022, published 2024).
Positions of bridges follow the written chain, without caps; N, C: chain ends. Non-standard residues stand in square brackets, D forms with d. Residues, ends and D or L forms follow the SMILES beside them. 2Nal = N[C@@H](Cc1ccc2ccccc2c1)C(=O)O; Cit = NC(=O)NCCC[C@H](N)C(=O)O; Ahp(2) = CCCCC[C@H](N)C(=O)O; NMeNle = CCCC[C@H](NC)C(=O)O; Pip = O=C(O)[C@@H]1CCCCN1; NHexGly = CCCCCCNCC(=O)O; NMeA = CN[C@@H](C)C(=O)O; Nle = CCCC[C@H](N)C(=O)O; Orn = NCCC[C@H](N)C(=O)O; Dab = NCC[C@H](N)C(=O)O; Dap = NC[C@H](N)C(=O)O

Target: T1, mouse VISTA (mVISTA) (Mus musculus, UniProt Q9D659)
T1 construct: expressed in transfected cells; host or cells: Human embryonic kidney 293T cells
T1 sequence (Q9D659 33-308): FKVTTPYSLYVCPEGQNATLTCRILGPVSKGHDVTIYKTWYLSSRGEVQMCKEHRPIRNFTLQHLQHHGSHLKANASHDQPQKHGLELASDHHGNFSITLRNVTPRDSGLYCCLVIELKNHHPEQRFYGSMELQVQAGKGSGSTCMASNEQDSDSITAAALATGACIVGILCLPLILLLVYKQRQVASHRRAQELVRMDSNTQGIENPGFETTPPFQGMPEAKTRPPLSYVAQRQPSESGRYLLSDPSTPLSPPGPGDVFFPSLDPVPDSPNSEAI
Assay: Cell-Based Binding High-Content Assay For mVISTA (HC CBA mVISTA)
Details: read-out: HC CBA mVISTA IC50
Outline: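 This high-content binding assay uses HEK293T cells expressing murine VISTA, measuring displacement of 2 nM biotinylated peptide by fluorescent streptavidin imaging. IC50 values come from four-parameter logistic fitting.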

| SMILES | IC50 |
| --- | --- |
| CCCCCCN1CC(=O)N[C@@H](Cc2ccc(O)cc2)C(=O)N[C@@H](CCCC)C(=O)N[C@@H](CC(N)=O)C(=O)N[C@@H](CCCNC(=N)N)C(=O)N(C)[C@@H](CCCC)C(=O)N[C@@H](CCCCC)C(=O)N(C)[C@@H](C)C(=O)N[C@@H](C(C)C)C(=O)N[C@@H](CO)C(=O)N[C@H](C(=O)NCC(N)=O)CSCC(=O)N[C@@H](Cc2ccccc2)C(=O)N[C@@H](Cc2c[nH]c3ccccc23)C(=O)N[C@@H](CC(=O)O)C1=O [compound 1143] ({CH2CO}-FWD[NHexGly]Y[Nle]NR[NMeNle][Ahp(2)][NMeA]VSCG-NH2; thioether N-14) | 17.6 nM |
| CCCCCCN1CC(=O)N[C@@H](Cc2ccc(O)cc2)C(=O)N[C@@H](CCCC)C(=O)N[C@@H](CC(N)=O)C(=O)N[C@@H](CCCNC(N)=O)C(=O)N(C)[C@@H](CCCC)C(=O)N[C@@H](CCCCC)C(=O)N(C)[C@@H](C)C(=O)N[C@@H](C(C)C)C(=O)N[C@@H](CO)C(=O)N[C@H](C(=O)NCC(N)=O)CSCC(=O)N[C@@H](Cc2ccccc2)C(=O)N[C@@H](Cc2c[nH]c3ccccc23)C(=O)N[C@@H](CC(=O)O)C1=O [compound 1144] ({CH2CO}-FWD[NHexGly]Y[Nle]N[Cit][NMeNle][Ahp(2)][NMeA]VSCG-NH2; thioether N-14) | 15.8 nM |
| CCCCCCN1CC(=O)N[C@@H](Cc2ccc(O)cc2)C(=O)N[C@@H](CCCC)C(=O)N[C@@H](CC(N)=O)C(=O)N[C@@H](CCCNC(=N)N)C(=O)N(C)[C@@H](CCCC)C(=O)N[C@@H](CCCCC)C(=O)N2CCCC[C@H]2C(=O)N[C@@H](C(C)C)C(=O)N[C@@H](CO)C(=O)N[C@H](C(=O)NCC(N)=O)CSCC(=O)N[C@@H](Cc2ccccc2)C(=O)N[C@@H](Cc2c[nH]c3ccccc23)C(=O)N[C@@H](CC(=O)O)C1=O [compound 1145] ({CH2CO}-FWD[NHexGly]Y[Nle]NR[NMeNle][Ahp(2)][Pip]VSCG-NH2; thioether N-14) | 28.6 nM |
| CCCCCCN1CC(=O)N[C@@H](Cc2ccc(O)cc2)C(=O)N[C@@H](CCCC)C(=O)N[C@@H](CC(N)=O)C(=O)N[C@@H](CCCNC(N)=O)C(=O)N(C)[C@@H](CCCC)C(=O)N[C@@H](CCCCC)C(=O)N2CCCC[C@H]2C(=O)N[C@@H](C(C)C)C(=O)N[C@@H](CO)C(=O)N[C@H](C(=O)NCC(N)=O)CSCC(=O)N[C@@H](Cc2ccccc2)C(=O)N[C@@H](Cc2c[nH]c3ccccc23)C(=O)N[C@@H](CC(=O)O)C1=O [compound 1146] ({CH2CO}-FWD[NHexGly]Y[Nle]N[Cit][NMeNle][Ahp(2)][Pip]VSCG-NH2; thioether N-14) | 21.7 nM |
| CCCCCCN1CC(=O)N[C@@H](Cc2ccc(O)cc2)C(=O)N[C@@H](CCCCC)C(=O)NCC(=O)N[C@@H](CCCNC(=N)N)C(=O)N[C@@H](CC(C)C)C(=O)N[C@@H](CCCCC)C(=O)N2CCCC[C@H]2C(=O)N[C@@H](C(C)C)C(=O)N[C@@H](CO)C(=O)N[C@H](C(=O)NCC(N)=O)CSCC(=O)N[C@@H](Cc2ccccc2)C(=O)N[C@@H](Cc2ccc(O)cc2)C(=O)N[C@@H](CC(=O)O)C1=O [compound 1155] ({CH2CO}-FYD[NHexGly]Y[Ahp(2)]GRL[Ahp(2)][Pip]VSCG-NH2; thioether N-14) | 24 nM |

Next, values leading:

| IC50 | SMILES |
| --- | --- |
| 13.7 nM | CCCCCCN1CC(=O)N[C@@H](Cc2ccc(O)cc2)C(=O)N[C@@H](CCCC)C(=O)N[C@@H](CC(N)=O)C(=O)N[C@@H](CCCNC(=N)N)C(=O)N(C)[C@@H](CCCC)C(=O)N[C@@H](CCCCC)C(=O)N2CCC[C@H]2C(=O)N[C@@H](C(C)C)C(=O)N[C@@H](CC(=O)O)C(=O)N[C@H](C(=O)N[C@@H](CCN)C(=O)N[C@@H](CCC(N)=O)C(=O)O)CSCC(=O)N[C@@H](Cc2ccc3ccccc3c2)C(=O)N[C@@H](Cc2c[nH]c3ccccc23)C(=O)N[C@@H](CC(=O)O)C1=O [compound 1134] ({CH2CO}-[2Nal]WD[NHexGly]Y[Nle]NR[NMeNle][Ahp(2)]PVDC[Dab]Q-OH; thioether N-14) |
| 39.1 nM | CCCCCCN1CC(=O)N[C@@H](Cc2ccc(O)cc2)C(=O)N[C@@H](CCCC)C(=O)N[C@@H](CC(N)=O)C(=O)N[C@@H](CCCNC(=N)N)C(=O)N(C)[C@@H](CCCC)C(=O)N[C@@H](CCCCC)C(=O)N2CCC[C@H]2C(=O)N[C@@H](C(C)C)C(=O)N[C@@H](CC(=O)O)C(=O)N[C@H](C(=O)N[C@@H](CN)C(=O)N[C@@H](CCC(N)=O)C(=O)O)CSCC(=O)N[C@@H](Cc2ccc3ccccc3c2)C(=O)N[C@@H](Cc2c[nH]c3ccccc23)C(=O)N[C@@H](CC(=O)O)C1=O [compound 1135] ({CH2CO}-[2Nal]WD[NHexGly]Y[Nle]NR[NMeNle][Ahp(2)]PVDC[Dap]Q-OH; thioether N-14) |
| 9.5 nM | CCCCCCN1CC(=O)N[C@@H](Cc2ccc(O)cc2)C(=O)N[C@@H](CCCC)C(=O)N[C@@H](CC(N)=O)C(=O)N[C@@H](CCCNC(=N)N)C(=O)N(C)[C@@H](CCCC)C(=O)N[C@@H](CCCCC)C(=O)N2CCC[C@H]2C(=O)N[C@@H](C(C)C)C(=O)N[C@@H](CC(=O)O)C(=O)N[C@H](C(=O)N[C@@H](CN)C(=O)N[C@@H](CC(N)=O)C(=O)O)CSCC(=O)N[C@@H](Cc2ccc3ccccc3c2)C(=O)N[C@@H](Cc2c[nH]c3ccccc23)C(=O)N[C@@H](CC(=O)O)C1=O [compound 1136] ({CH2CO}-[2Nal]WD[NHexGly]Y[Nle]NR[NMeNle][Ahp(2)]PVDC[Dap]N-OH; thioether N-14) |
| 22.4 nM | CCCCCCN1CC(=O)N[C@@H](Cc2ccc(O)cc2)C(=O)N[C@@H](CCCC)C(=O)N[C@@H](CC(N)=O)C(=O)N[C@@H](CCCNC(=N)N)C(=O)N(C)[C@@H](CCCC)C(=O)N[C@@H](CCCCC)C(=O)N2CCC[C@H]2C(=O)N[C@@H](C(C)C)C(=O)N[C@@H](CC(=O)O)C(=O)N[C@H](C(=O)N[C@@H](CCCCN)C(=O)N[C@@H](CCC(N)=O)C(=O)O)CSCC(=O)N[C@@H](Cc2ccc3ccccc3c2)C(=O)N[C@@H](Cc2c[nH]c3ccccc23)C(=O)N[C@@H](CC(=O)O)C1=O [compound 1137] ({CH2CO}-[2Nal]WD[NHexGly]Y[Nle]NR[NMeNle][Ahp(2)]PVDCKQ-OH; thioether N-14) |
| 36.2 nM | CCCCCCN1CC(=O)N[C@@H](Cc2ccc(O)cc2)C(=O)N[C@@H](CCCC)C(=O)N[C@@H](CC(N)=O)C(=O)N[C@@H](CCCNC(=N)N)C(=O)N(C)[C@@H](CCCC)C(=O)N[C@@H](CCCCC)C(=O)N2CCC[C@H]2C(=O)N[C@@H](C(C)C)C(=O)N[C@@H](CC(=O)O)C(=O)N[C@H](C(=O)N[C@@H](CCCN)C(=O)N[C@@H](CC(N)=O)C(=O)O)CSCC(=O)N[C@@H](Cc2ccc3ccccc3c2)C(=O)N[C@@H](Cc2c[nH]c3ccccc23)C(=O)N[C@@H](CC(=O)O)C1=O [compound 1139] ({CH2CO}-[2Nal]WD[NHexGly]Y[Nle]NR[NMeNle][Ahp(2)]PVDC[Orn]N-OH; thioether N-14) |
| 19.1 nM | CCCCCCN1CC(=O)N[C@@H](Cc2ccc(O)cc2)C(=O)N[C@@H](CCCC)C(=O)N[C@@H](CC(N)=O)C(=O)N[C@@H](CCCNC(=N)N)C(=O)N(C)[C@@H](CCCC)C(=O)N[C@@H](CCCCC)C(=O)N2CCC[C@H]2C(=O)N[C@@H](C(C)C)C(=O)N[C@@H](CC(=O)O)C(=O)N[C@H](C(=O)N[C@@H](CCCN)C(=O)N[C@@H](CCC(N)=O)C(=O)O)CSCC(=O)N[C@@H](Cc2ccc3ccccc3c2)C(=O)N[C@@H](Cc2c[nH]c3ccccc23)C(=O)N[C@@H](CC(=O)O)C1=O [compound 1140] ({CH2CO}-[2Nal]WD[NHexGly]Y[Nle]NR[NMeNle][Ahp(2)]PVDC[Orn]Q-OH; thioether N-14) |
